Experimental data reported in patent publication EP1129354B1, “A METHOD FOR DETERMINING A MIMOTOPE SEQUENCE” (PEPSCAN SYSTEMS B.V., priority 1998, dated 2000).

Legend:
[1] = system: antibody; assay: Pepscan ELISA, replacement analyses and lengthening (Example-4); assay type: binding; conditions: value is the antibody concentration
Description: In addition to random minipepscan libraries mimotopes can also be identified from standard pepscan libraries. These libraries contain all overlapping 12-mers (or shorter/longer) covering the linear sequence of a known protein (Slootstra et al., 1995a).
(§1) In a replacement analysis the binding activity of complete series of substitutions analogs of lead peptides, in which each position is replaced by each of the other 19 natural L-amino acids, is investigated in detail. In addition, it is possible to use the 20 D-amino acids as well as other available non-natural amino acids. Substitutions that result in improved binding are combined into new sequences of building blocks. These new sequences are again tested in a 2nd replacement analysis. If necessary more rounds of replacement analyses are performed. After each round of a replacement analyses the antibody (or other soluble receptor) concentration can be lowered to obtain maximal binding activity (e.g. from 100 µg/ml to 0.01 µg/ml after 2 rounds of replacement-analyses, as shown in example-1).
(§2) Notes for the examples: • the 10 µg/ml, 1 µg/ml etc. denote the antibody concentration. • The line "improved position-01" etc. means that this change in amino acid (is underlined) improves binding activity in pepscan elisa at given antibody concentration. Positions that could not be improved are not mentioned (e.g. position-08 in first replacement-net of example-1, i.e. the original I at position 8 gives the highest activity).
In example-4, a lead peptide was identified through standard pepscan analysis, i.e. the antibody was tested on all overlapping 12-mers covering the linear sequence of the protein. The following two rounds of replacement analyses were done as discussed in example-1. In addition, the mimotope was lengthened to the left and right (3 amino acids, this can be further lengthened) through additional replacement analyses.

[2] = system: antibody; assay: Pepscan ELISA, replacement analyses of three leads and consensus (Example-6); assay type: binding; conditions: value is the antibody concentration
Description: (§3) Lead peptides can also be derived from other type of libraries such as for example phage-display libraries.
as §1, §2
In example-6, different lead peptides were used to identify a consensus sequence. Each lead peptide was used in multiple replacement analyses (two rounds).

[3] = system: antibody; assay: Pepscan ELISA, replacement analyses (Example-2); assay type: binding; conditions: value is the antibody concentration, antibody binds a non-linear epitope
[4] = system: Monoclonal antibody 26/9; assay: PEPSCAN-based ELISA, binding of peptides to antibody 26/9 (Example-1); conditions: value is the antibody 26/9 concentration at which the peptide shows binding activity in pepscan elisa
[5] = system: antibody; assay: Pepscan ELISA, lengthening and replacement analyses (Example-3); assay type: binding; conditions: value is the antibody concentration
Description: as §3, §1, §2
In example-3, lead peptides were identified through phage-display. Adjacent cysteines/glycines were added to improve binding activity. After obtained activity multiple replacement analyses were done as discussed in example-1.

[6] = system: antibody; assay: Pepscan ELISA, replacement analyses of consensus sequence (Example-5); assay type: binding; conditions: value is the antibody concentration
Experimental: All 4550 dodecapeptides were ranked according to their binding activity. According to their ranking consensus sequences and motifs are identified. Initial methods of lead optimization that only use the sequence of the top 50 molecules have been described in Slootstra et al.(1995b; 1997). The present method uses all 4550 sequences. Firstly, the frequency and/or distribution of single amino acids and the dipeptide motifs OO, dipeptide motifs OXO and dipeptide motifs OXXO is determined using Microsoft Excel 4.0 (O, one of the 20 natural L-amino acids; X, any residue). Secondly, properties of the amino acids (hydrophobicity, charge etc.) are included in the analysis. […] This is done by substitution of building blocks that inhibit activity and include building blocks that improve binding activity.
as §1, §2
In example-5, a set of similar lead peptides were used to identify a consensus sequence. The consensus sequences were identified as discussed in materials and method. This sequence was used in the replacement analyses. ALIGNMENT OF LEAD PEPTIDES: • QNNMKLFRGCVP • RGIKWNEMTDQW • KLQQNPTFYPPV • TNNCKEFAGIVP • RGILTNIMKDQW • IVQNNPKFFRGA

AIMIKLILVNFR
activity at [1]: activity at ≥ 5.0 µg/ml

ANAPSA
activity at [2]: : activity at ≥ 5.0 µg/ml

ANAPSAIGAFGL
activity at [3]: activity at ≥ 5.0 µg/ml

ANWPSA
activity at [2]: : activity at ≥ 10.0 µg/ml

ANWPSAIGAFGL
activity at [3]: activity at ≥ 10.0 µg/ml

ANWSSA
activity at [2]: : activity at ≥ 5.0 µg/ml

ANWSSAIGAFGL
activity at [3]: activity at ≥ 5.0 µg/ml

ANWSSAIGAFKL
activity at [3]: activity at ≥ 5.0 µg/ml

APPIKLIRVNYR
activity at [1]: activity at ≥ 0.5 µg/ml

AVMIKLILVNFR
activity at [1]: activity at ≥ 5.0 µg/ml

AVMIKLILVNYR
activity at [1]: activity at ≥ 5.0 µg/ml

AVMIKLIRVNFR
activity at [1]: activity at ≥ 5.0 µg/ml

AVPIKLILVNFR
activity at [1]: activity at ≥ 5.0 µg/ml

AWWPSA
activity at [2]: : activity at ≥ 5.0 µg/ml

AWWPSAIGAFGL
activity at [3]: activity at ≥ 5.0 µg/ml

CGCAAENIRCYA
activity at [4]: activity at ≥ 10.0 µg/ml

CGCAAMDIRCYA
activity at [4]: activity at ≥ 10.0 µg/ml

CGCAAMNIRNYA
activity at [4]: activity at ≥ 10.0 µg/ml

CGCAANINIMCYA
activity at [4]: activity at ≥ 10.0 µg/ml

CGCAEMNIRCYA
activity at [4]: activity at ≥ 10.0 µg/ml

CGCEAMMIRCYA
activity at [4]: activity at ≥ 10.0 µg/ml

CGDAAMNIRCYA
activity at [4]: activity at ≥ 10.0 µg/ml

CMCAAMNIRCYA
activity at [4]: activity at ≥ 10.0 µg/ml

CSDTHKGCG
activity at [5]: activity at ≥ 5.0 µg/ml

CSDTRKGC
activity at [5]: activity at ≥ 10.0 µg/ml

CSDTRYGCG
activity at [5]: activity at ≥ 5.0 µg/ml

CSETRKGCG
activity at [5]: activity at ≥ 5.0 µg/ml

CTDTRKGCG
activity at [5]: activity at ≥ 5.0 µg/ml

CTETHFGCG
activity at [5]: activity at ≥ 0.5 µg/ml

CTETHYGCG
activity at [5]: activity at ≥ 1.0 µg/ml

CTETKYGCG
activity at [5]: activity at ≥ 0.5 µg/ml

CYETHYGCG
activity at [5]: activity at ≥ 0.5 µg/ml

CYETKFGCG
activity at [5]: activity at ≥ 0.1 µg/ml

CYETKFGNG
activity at [5]: activity at ≥ 0.05 µg/ml

DYETKFGCG
activity at [5]: activity at ≥ 0.05 µg/ml

DYETKFGNG
activity at [5]: activity at ≥ 0.01 µg/ml

EGCAAMNIRCYA
activity at [4]: activity at ≥ 10.0 µg/ml

EMDEEEDIMDYA
activity at [4]: activity at ≥ 0.1 µg/ml

EMDEEEDIPNYA
activity at [4]: activity at ≥ 0.1 µg/ml

EMDEEEDVMNYA
activity at [4]: activity at ≥ 0.1 µg/ml

HNWPSA
activity at [2]: : activity at ≥ 5.0 µg/ml

HNWPSAIGAFGL
activity at [3]: activity at ≥ 5.0 µg/ml

HWASPA
activity at [2]: : activity at ≥ 0.5 µg/ml

HWASSAIGAFKL
activity at [3]: activity at ≥ 1.0 µg/ml

HWASSAMGAFKL
activity at [3]: activity at ≥ 0.5 µg/ml

HWGSSAIGAFKL
activity at [3]: activity at ≥ 0.5 µg/ml

HYASSAIGAFKL
activity at [3]: activity at ≥ 0.5 µg/ml

IKLIRVNYRCEN [combination impr., replacement analysis-IV]
activity at [1]: activity at ≥ 0.1 µg/ml

IKLIRVNYRCQP
activity at [1]: activity at ≥ 0.5 µg/ml

IKLIRVNYRMEP
activity at [1]: activity at ≥ 0.5 µg/ml

IKLIRVNYRMQN
activity at [1]: activity at ≥ 0.5 µg/ml

IKLIRVNYRMQP [lengthened right]
activity at [1]: activity at ≥ 1.0 µg/ml

ILQNNMKDFRG
activity at [6]: activity at ≥ 1.0 µg/ml

ILQNNMKDWRG
activity at [6]: activity at ≥ 0.5 µg/ml

ILQNNMPDFRG
activity at [6]: activity at ≥ 0.5 µg/ml

ILTNNMGDWRG
activity at [6]: activity at ≥ 0.05 µg/ml

ILTNNMGDWYG
activity at [6]: activity at ≥ 0.01 µg/ml

ILTNNMKDFRG
activity at [6]: activity at ≥ 0.5 µg/ml

ILTNNMPDWRG
activity at [6]: activity at ≥ 0.1 µg/ml

ILTNNMPDWYG
activity at [6]: activity at ≥ 0.05 µg/ml

KIWYPPIKLIRV
activity at [1]: activity at ≥ 0.5 µg/ml

KIYYPPIKLIRV [lengthened left]
activity at [1]: activity at ≥ 1.0 µg/ml

KIYYPPISLIRV
activity at [1]: activity at ≥ 0.5 µg/ml

KLATRW
activity at [2]: : activity at ≥ 5.0 µg/ml

KLITRW
activity at [2]: : activity at ≥ 10.0 µg/ml

KLITRY
activity at [2]: : activity at ≥ 5.0 µg/ml

KPYYPPIKLIRV
activity at [1]: activity at ≥ 0.5 µg/ml

KSITRW
activity at [2]: : activity at ≥ 5.0 µg/ml

KWASSAIGAFKL
activity at [3]: activity at ≥ 0.5 µg/ml

KYFSSAMGAFKL
activity at [3]: activity at ≥ 0.05 µg/ml

KYFSSGMGAFKL
activity at [3]: activity at ≥ 0.01 µg/ml

KYGSSAMGAFKL
activity at [3]: activity at ≥ 0.1 µg/ml

KYGSSGMGAFKL
activity at [3]: activity at ≥ 0.05 µg/ml

NICHWA
activity at [2]: : activity at ≥ 1.0 µg/ml

NICSWS
activity at [2]: : activity at ≥ 5.0 µg/ml

NVCHWA
activity at [2]: : activity at ≥0.5 µg/ml

NVCHWS
activity at [2]: : activity at ≥ 5.0 µg/ml

NVCSWA
activity at [2]: : activity at ≥ 5.0 µg/ml

NVCSWS
activity at [2]: : activity at ≥ 10.0 µg/ml

RIYYPPIKLIRV
activity at [1]: activity at ≥ 0.5 µg/ml

RPWYPPISLIRV [combination impr., replacement analysis-III]
activity at [1]: activity at ≥ 0.1 µg/ml

RPWYPPISLIRVNYRCEN [combination total, 18-mer mimotope]
activity at [1]: activity at ≥ 0.01 µg/ml

RVMIKLILVNFR
activity at [1]: activity at ≥ 10.0 µg/ml

SLITRW
activity at [2]: : activity at ≥ 5.0 µg/ml

SSATRY
activity at [2]: : activity at ≥ 1.0 µg/ml

YICHWA
activity at [2]: : activity at ≥0.5 µg/ml

YIPIKLIRVNYR
activity at [1]: activity at ≥ 0.5 µg/ml

YPPIKLIRVNYR
activity at [1]: activity at ≥ 0.1 µg/ml

YVCHWA
activity at [2]: : activity at ≥ 0.1 µg/ml

YVCHWASSATRY
activity at [2]: activity at 0.01 µg/ml
